These results are taken from patent publication US20090054392A1, “NAPHTHYLPYRIMIDINE, NAPHTHYLPYRAZINE AND NAPHTHYLPYRIDAZINE ANALOGS AND THEIR USE AS AGONISTS OF THE WNT-BETA-CATENIN CELLULAR MESSAGING SYSTEM” (Wyeth, priority 2007, published 2009).

Structures are written as SMILES.

As usually defined, the EC50 is the concentration that produces a half-maximal response. A lower EC50 goes with higher potency in that assay.

This series deals with Dkk1-LRP5-TCF-Luciferase. The series is described as follows: Functional Dkk1-LRP5-TCF-Luciferase Assay in U2OS Cells. The note with it: for fold induction at 2 µM / fold induction at 20 µM / EC50: Homo sapiens, U2OS; for fold induction at 2 µM: read-out: B = TCF ACTIVITY/DMSO CONTROL Fold induction @ 2.0 uM, 2.0 uM compound; for fold induction at 20 µM: read-out: C = TCF ACTIVITY/DMSO CONTROL Fold induction @ 20.0 uM, 20.0 uM compound; for A = MAX FOLD Induction/DMSO CONTROL: maximum fold induction over DMSO control.

As to `COC(=O)N[C@H]1CCN(c2nccc(-c3ccc4ccccc4c3)n2)C1` [methyl {(3S)-1-[4-(2-naphthyl)pyrimidin-2-yl]pyrrolidin-3-yl}carbamate], the fold induction at 2 µM amounted to 1.03 and the fold induction at 20 µM stood at 1.63. The like results for `CC(C)(C)OC(=O)N1CC(CNc2nccc(-c3ccc4ccccc4c3)n2)C1` [tert-butyl 3-({[4-(2-naphthyl)pyrimidin-2-yl]amino}methyl)azetidine-1-carboxylate] were, in that order, 1.8 and 1.02.

Take `COC(=O)C(Nc1nccc(-c2ccc3ccccc3c2)n1)C1CCN(C(=O)OC(C)(C)C)CC1` (stereo not shown) [tert-butyl 4-(2-methoxy-1-{[4-(2-naphthyl)pyrimidin-2-yl]amino}-2-oxoethyl)piperidine-1-carboxylate]: the fold induction at 2 µM came to 1.62.

On to `CC(C)(C)OC(=O)N1CCN(C[C@H]2CCN(c3nccc(-c4ccc5ccccc5c4)n3)C2)CC1` [tert-butyl 4-({(3R)-1-[4-(2-naphthyl)pyrimidin-2-yl]pyrrolidin-3-yl}methyl)piperazine-1-carboxylate], for which the fold induction at 2 µM was 1.95.

`CC(C)(C)OC(=O)N1CCN(C[C@@H]2CCN(c3nccc(-c4ccc5ccccc5c4)n3)C2)CC1` [tert-butyl 4-({(3S)-1-[4-(2-naphthyl)pyrimidin-2-yl]pyrrolidin-3-yl}methyl)piperazine-1-carboxylate]: the fold induction at 2 µM was determined as 1.16 and the fold induction at 20 µM was 0.85.

For `CC(C)(C)OC(=O)N1CCC(CNc2nccc(-c3ccc4ccccc4c3)n2)CC1` [tert-butyl 4-({[4-(2-naphthyl)pyrimidin-2-yl]amino}methyl)piperidine-1-carboxylate], the fold induction at 2 µM was 0.93 and the fold induction at 20 µM was found to be 1.18. The like results for `CC(C)(C)OC(=O)N1CCN(c2nccc(-c3ccc4ccccc4c3)n2)CC1` [tert-butyl 4-[4-(2-naphthyl)pyrimidin-2-yl]piperazine-1-carboxylate] were, in that order, 0.98 and 1.94. In the case of `CC(C)(C)OC(=O)N1CCC(Nc2nccc(-c3ccc4ccccc4c3)n2)CC1` [tert-butyl 4-{[4-(2-naphthyl)pyrimidin-2-yl]amino}piperidine-1-carboxylate], the fold induction at 2 µM was determined as 1 and the fold induction at 20 µM turned out to be 1.41. As to `CN(c1nccc(-c2ccc3ccccc3c2)n1)C1CCN(C(=O)OC(C)(C)C)CC1` [tert-butyl 4-{methyl[4-(2-naphthyl)pyrimidin-2-yl]amino}piperidine-1-carboxylate], the fold induction at 2 µM came out at 0.98 and the fold induction at 20 µM stood at 1.92. For `CC(NC(=O)OC(C)(C)C)C1CCN(c2nccc(-c3ccc4ccccc4c3)n2)CC1` (stereo not shown) [tert-butyl (1-{1-[4-(2-naphthyl)pyrimidin-2-yl]piperidin-4-yl}ethyl)carbamate], the fold induction at 20 µM turned out to be 0.81. For `CC(C)(C)OC(=O)NC1CCCC(Nc2nccc(-c3ccc4ccccc4c3)n2)C1` (stereo not shown) [tert-butyl (3-{[4-(2-naphthyl)pyrimidin-2-yl]amino}cyclohexyl)carbamate], the fold induction at 2 µM turned out to be 1.07 and the fold induction at 20 µM was determined as 0.3. Regarding `CC(C)(C)OC(=O)N1CC[C@H](CNc2nccc(-c3ccc4ccccc4c3)n2)C1` [tert-butyl (3R)-3-({[4-(2-naphthyl)pyrimidin-2-yl]amino}methyl)pyrrolidine-1-carboxylate], the fold induction at 2 µM turned out to be 1.83.

As for `CC(C)(C)OC(=O)N1CC[C@@H](Nc2nccc(-c3ccc4ccccc4c3)n2)C1` [tert-butyl (3R)-3-{[4-(2-naphthyl)pyrimidin-2-yl]amino}pyrrolidine-1-carboxylate], the fold induction at 2 µM was 2.38, the fold induction at 20 µM came to 0.01 and the “A = MAX FOLD Induction/DMSO CONTROL” value amounted to 0.800 fold. Regarding `CC(C)(C)OC(=O)N1CC[C@@H](CNc2nccc(-c3ccc4ccccc4c3)n2)C1` [tert-butyl (3S)-3-({[4-(2-naphthyl)pyrimidin-2-yl]amino}methyl)pyrrolidine-1-carboxylate], the fold induction at 20 µM was 0.01.

Take `CC(C)(C)OC(=O)N1CC[C@H](Nc2nccc(-c3ccc4ccccc4c3)n2)C1` [tert-butyl (3S)-3-{[4-(2-naphthyl)pyrimidin-2-yl]amino}pyrrolidine-1-carboxylate]: the fold induction at 2 µM was determined as 2.11 and the “A = MAX FOLD Induction/DMSO CONTROL” value was 1.270 fold.

Take `CC(C)(C)OC(=O)N[C@@H](CO)C1CCN(c2nccc(-c3ccc4ccccc4c3)n2)CC1` [tert-butyl ((1R)-2-hydroxy-1-{1-[4-(2-naphthyl)pyrimidin-2-yl]piperidin-4-yl}ethyl)carbamate]: the fold induction at 2 µM is 1.13 and the fold induction at 20 µM is 0.35. Turning to `CC(C)(C)OC(=O)N[C@H](C1CCN(c2nccc(-c3ccc4ccccc4c3)n2)CC1)C(C)(C)O` [tert-butyl ((1R)-2-hydroxy-2-methyl-1-{1-[4-(2-naphthyl)pyrimidin-2-yl]piperidin-4-yl}propyl)carbamate], the fold induction at 2 µM turned out to be 1.79.

As for `C[C@H](NC(=O)OC(C)(C)C)C1CCN(c2nccc(-c3ccc4ccccc4c3)n2)CC1` [tert-butyl ((1S)-1-{1-[4-(2-naphthyl)pyrimidin-2-yl]piperidin-4-yl}ethyl)carbamate], the fold induction at 20 µM came to 1.08. In the case of `CC(C)(C)OC(=O)N[C@H](CO)C1CCN(c2nccc(-c3ccc4ccccc4c3)n2)CC1` [tert-butyl ((1S)-2-hydroxy-1-{1-[4-(2-naphthyl)pyrimidin-2-yl]piperidin-4-yl}ethyl)carbamate], the fold induction at 2 µM is 1.22 and the fold induction at 20 µM is 0.44.

Take `CC(C)(C)OC(=O)NCC1CN(c2nccc(-c3ccc4ccccc4c3)n2)C1` [tert-butyl ({1-[4-(2-naphthyl)pyrimidin-2-yl]azetidin-3-yl}methyl)carbamate]: the fold induction at 2 µM is 1.41 and the fold induction at 20 µM came to 0.46.

For the compound `CC(C)(C)OC(=O)NCC1CCCN(c2nccc(-c3ccc4ccccc4c3)n2)C1` (stereo not shown) [tert-butyl ({1-[4-(2-naphthyl)pyrimidin-2-yl]piperidin-3-yl}methyl)carbamate], the fold induction at 2 µM turned out to be 0.91 and the fold induction at 20 µM is 1.94. The like results for `CC(C)(C)OC(=O)NCC1CCN(c2nccc(-c3ccc4ccccc4c3)n2)C1` (stereo not shown) [tert-butyl ({1-[4-(2-naphthyl)pyrimidin-2-yl]pyrrolidin-3-yl}methyl)carbamate] were, in that order, 1.09 and 0.17.

Turning to `CC(C)(C)OC(=O)NC1CCCN(c2nccc(-c3ccc4ccccc4c3)n2)CC1` (stereo not shown) [tert-butyl {1-[4-(2-naphthyl)pyrimidin-2-yl]azepan-4-yl}carbamate], the fold induction at 2 µM turned out to be 1.34 and the fold induction at 20 µM amounted to 0.33.

Consider `CC(C)(C)OC(=O)NC1CCN(c2nccc(-c3ccc4ccccc4c3)n2)CC1` [tert-butyl {1-[4-(2-naphthyl)pyrimidin-2-yl]piperidin-4-yl}carbamate], for which the fold induction at 2 µM amounted to 0.93 and the fold induction at 20 µM came to 1.91. With `CC(C)(C)OC(=O)NCCC1CN(c2nccc(-c3ccc4ccccc4c3)n2)C1` [tert-butyl {2-[1-(4-naphthalen-2-ylpyrimidin-2-yl)azetidin-3-yl]ethyl}carbamate], the fold induction at 20 µM was found to be 1.6. Consider `CC(C)(C)OC(=O)N[C@@H]1CCN(c2nccc(-c3ccc4ccccc4c3)n2)C1` [tert-butyl {(3R)-1-[4-(2-naphthyl)pyrimidin-2-yl]pyrrolidin-3-yl}carbamate], for which the fold induction at 2 µM was found to be 1.95. Take `CC(C)(C)OC(=O)N[C@H]1CCN(c2nccc(-c3ccc4ccccc4c3)n2)C1` [tert-butyl {(3S)-1-[4-(2-naphthyl)pyrimidin-2-yl]pyrrolidin-3-yl}carbamate]: the fold induction at 2 µM is 1.51. For the compound `N[C@H]1CC[C@H](Nc2nccc(-c3ccc4ccccc4c3)n2)CC1` [trans-N-[4-(2-naphthyl)pyrimidin-2-yl]cyclohexane-1,4-diamine], the EC50 worked out at 3.7 µM, the fold induction at 2 µM worked out at 1.91, the fold induction at 20 µM amounted to 3.95 and the “A = MAX FOLD Induction/DMSO CONTROL” value is listed as 4.730 fold. For `O=CNC1CCCN(c2nccc(-c3ccc4ccccc4c3)n2)CC1` (stereo not shown) [{1-[4-(2-naphthyl)pyrimidin-2-yl]azepan-4-yl}formamide], the EC50 was 2.25 µM, the fold induction at 2 µM was 1.5, the fold induction at 20 µM is 2.05 and the “A = MAX FOLD Induction/DMSO CONTROL” value is given as 1.800 fold. As for `OCC1CCN(c2nccc(-c3ccc4ccccc4c3)n2)CC1` [{1-[4-(2-naphthyl)pyrimidin-2-yl]piperidin-4-yl}methanol], the fold induction at 2 µM amounted to 1.81 and the fold induction at 20 µM was found to be 0.02. As for `OCC1CCN(c2nccc(-c3ccc4ccccc4c3)n2)C1` (stereo not shown) [{1-[4-(2-naphthyl)pyrimidin-2-yl]pyrrolidin-3-yl}methanol], the midpoint of the response, the EC50, lay at 0.925 µM; the fold induction at 2 µM is 2.13; the fold induction at 20 µM came to 1.42; the “A = MAX FOLD Induction/DMSO CONTROL” value stood at 1.975 fold. Regarding `NCC1(CN)C[C@@H]2C[C@H]1CN2c1nccc(-c2ccc3ccccc3c2)n1` [{(1S,4R)-2-[4-(2-naphthyl)pyrimidin-2-yl]-2-azabicyclo[2.2.1]heptane-5,5-diyl}dimethanamine], the fold induction at 2 µM stood at 1.2. On to `OC[C@H]1CCCN1c1nccc(-c2ccc3ccccc3c2)n1` [{(2R)-1-[4-(2-naphthyl)pyrimidin-2-yl]pyrrolidin-2-yl}methanol], for which the fold induction at 2 µM turned out to be 1.85 and the fold induction at 20 µM is 1.78. The like results for `OC[C@@H]1CCCN1c1nccc(-c2ccc3ccccc3c2)n1` [{(2S)-1-[4-(2-naphthyl)pyrimidin-2-yl]pyrrolidin-2-yl}methanol] were, in that order, 2.05 and 2.02. Take `OC[C@@H]1CCCN(c2nccc(-c3ccc4ccccc4c3)n2)C1` [{(3R)-1-[4-(2-naphthyl)pyrimidin-2-yl]piperidin-3-yl}methanol]: the fold induction at 2 µM worked out at 1.98, the fold induction at 20 µM turned out to be 1.08 and the “A = MAX FOLD Induction/DMSO CONTROL” value is on record as 1.800 fold.
